According to paper PMC3671673, “In Vitro Morphological Assessment of Apoptosis Induced by Antiproliferative Constituents from the Rhizomes of Curcuma zedoaria” (Evidence-based Complementary and Alternative Medicine : eCAM, 2013):
Marks after values point to notes of the source that are not given here.

Legend:
Assay type in all cases: cell-based, human
[1] = system: active caspase-3 in HCT-116 cells; experiment: Flow cytometric active caspase-3 assay, HCT-116
Protocol: Caspases are key mediators of cell death. Caspase-3 activity assay was performed using FITC Active Caspase-3 Apoptosis Kit (BD Pharmingen). These probes bind covalently and irreversibly to the active site of the active caspase heterodimer emitting the green fluorescent signal detected by the FL-1 channel. Briefly, the cancer cells were treated with curzerenone (25, 40, and 50 μg/mL) and alismol (12.5, 25, and 40 μg/mL) for 48 h. The assay was performed based on the manufacturer's protocol. Cells were analyzed using BD Accuri C6 flow cytometry and BD CFlow software.

MCF-7 cells [2] = experiment: Morphological changes by phase contrast inverted microscope, MCF-7; details: MCF-7, 48 h, 12.5-50 μg/mL, phase contrast 200x
Protocol: (§1) Observation of morphological changes of apoptotic cells was performed according to the method with slight modifications. Briefly, 5 × 10^5 cells were incubated for 48 hours with or without selected compounds at concentrations of 12.5, 25, 40, and 50 μg/mL in a 60 mm diameter tissue culture dishes. The medium was discarded and cells were washed once with PBS. The morphological changes of the apoptotic cells were observed using phase contrast inverted microscope (Leica DMI 3000B, Germany) at 200x magnifications.

Ca Ski cells = experiment: Morphological changes by phase contrast inverted microscope, Ca Ski; details: 48 h, 12.5-50 μg/mL, phase contrast 200x
Protocol: as §1

MCF-7 cells [3] = experiment: Hoechst 33342/PI dual staining, quantification of apoptotic/necrotic cells, MCF-7; details: 48 h
Protocol: (§2) Briefly, cells were grown on tissue culture dishes and treated with or without tested compounds at concentrations of 12.5, 25, 40, and 50 μg/mL. After 48 hours, the cells were harvested and washed with cold PBS to a density of 5 × 10^5 cells/mL. The cells were suspended in Hoechst 33342 solution (10 μg/mL) and were incubated at 37°C in CO2 for 7 minutes. After incubation with Hoechst 33342, the cells were counter stained with propidium iodide (2.5 μg/mL). The samples were maintained in the dark for 15 minutes. After staining, an aliquot of cell suspension was placed on a glass microscope slides. The slides were observed immediately under inverted fluorescence microscope (DM16000B, Germany) using UV/488 dual excitation and the fluorescence was measured at ~460 nm emission of Hoechst 33342 dye and >575 nm emission of propidium iodide at 630x magnification. At least 200 total target cells were counted and the numbers of each four cellular states were recorded and analyzed using fluorescence microscopy for quantification of apoptosis and necrosis. The experiment was conducted in triplicates. The percentages of apoptotic and necrotic cells were determined according to the following formula [27]: (1) Percentage of Apoptotic Cells (%) =(LA+DA)/ LN+LA+DN+DA×100,Percentage of Necrotic Cells (%) = DN/LN+LA+DN+DA×100, where LN are live target cells with normal nuclei (Hoechst 33342/PI: blue chromatin with organized structure), LA are live cells with apoptotic nuclei (Hoechst 33342/PI: bright blue chromatin that is highly condensed or fragmented), DN are dead cells with normal nuclei (Hoechst 33342/PI: pink chromatin with organized structure), and DA are dead cells with apoptotic nuclei (Hoechst 33342/PI: bright pink chromatin that is, highly condensed or fragmented).

HCT-116 cells = experiment: Hoechst 33342/PI dual staining, quantification of apoptotic/necrotic cells, HCT-116; details: 48 h
Protocol: as §2

SMILES	morphological changes (in words) (MCF-7 cells [2])	morphological changes (in words) (Ca Ski cells)	Percentage of apoptotic cells (%) (MCF-7 cells [3]; MCF-7, 12.5 μg/mL)	Percentage of necrotic cells (%) (MCF-7 cells [3]; MCF-7, 12.5 μg/mL)	Percentage of apoptotic cells (%) (MCF-7 cells [3]; MCF-7, 25 μg/mL)	Percentage of necrotic cells (%) (MCF-7 cells [3]; MCF-7, 25 μg/mL)	Percentage of apoptotic cells (%) (MCF-7 cells [3]; MCF-7, 40 μg/mL)	Percentage of necrotic cells (%) (MCF-7 cells [3]; MCF-7, 40 μg/mL)	Percentage of apoptotic cells (%) (MCF-7 cells [3]; MCF-7, 50 μg/mL)	Percentage of necrotic cells (%) (MCF-7 cells [3]; MCF-7, 50 μg/mL)	Percentage of apoptotic cells (%) (HCT-116 cells; HCT-116, 12.5 μg/mL)	Percentage of necrotic cells (%) (HCT-116 cells; HCT-116, 12.5 μg/mL)	Percentage of apoptotic cells (%) (HCT-116 cells; HCT-116, 25 μg/mL)	Percentage of necrotic cells (%) (HCT-116 cells; HCT-116, 25 μg/mL)	Percentage of apoptotic cells (%) (HCT-116 cells; HCT-116, 40 μg/mL)	Percentage of necrotic cells (%) (HCT-116 cells; HCT-116, 40 μg/mL)	Percentage of apoptotic cells (%) (HCT-116 cells; HCT-116, 50 μg/mL)	Percentage of necrotic cells (%) (HCT-116 cells; HCT-116, 50 μg/mL)	other results
C=C1CCC(C(C)C)=CC2C1CC[C@@]2(C)O (some centres unmarked) [Alismol, alismol]	typical apoptotic features	typical apoptotic features	6.17 ± 0.58^a %	3.83 ± 0.30^a %	9.17 ± 1.5^b %	5.17 ± 1.50^b %	43.00 ± 1.0^d %	38.33 ± 1.30^c %	29.63 ± 1.1^c %	58.97 ± 1.10^d %	48.83 ± 1.61^b %	19.50 ± 1.00^a %	55.33 ± 3.01^b %	26.00 ± 1.30^b %	21.33 ± 2.02^a %	67.67 ± 2.60^c %	19.00 ± 0.87^a %	76.67 ± 0.80^d %	highest increment of caspase-3 activity ([1]; HCT-116, 40 μg/mL, 48 h): 45 folds; Percentage of apoptotic cells (%) (MCF-7 cells [3]; MCF-7, 40 μg/mL, listed as alismol): 43.0 ± 1.0%; Percentage of necrotic cells (%) (MCF-7 cells [3]; MCF-7, 50 μg/mL, listed as alismol): 59.0 ± 1.1%; Percentage of apoptotic cells (%) (HCT-116 cells; HCT-116, 25 μg/mL, listed as alismol): 55.3 ± 3.0%; Percentage of necrotic cells (%) (HCT-116 cells; HCT-116, 50 μg/mL, listed as alismol): 76.7 ± 0.8%
C=CC1(C)Cc2occ(C)c2C(=O)C1C(=C)C (centres unmarked) [Curzerenone, curzerenone]	typical apoptotic features	typical apoptotic features	4.83 ± 0.58^a %	2.00 ± 1.30^a %	5.83 ± 0.76^a %	3.83 ± 0.60^b %	53.00 ± 2.2^b %	5.50 ± 1.30^c %	57.33 ± 4.65^b %	17.83 ± 2.60^d %	45.00 ± 0.5^a %	9.00 ± 1.50^a %	50.00 ± 0.5^b %	15.33 ± 0.80^b %	46.5 ± 1.44^a %	25.00 ± 0.50^c %	49.17 ± 1.4^b %	28.00 ± 0.50^d %	highest increment in caspase-3 activity compared to untreated cells ([1]; HCT-116, 48 h, concentration not given): 100 folds; Percentage of apoptotic cells (%) (MCF-7 cells [3]; MCF-7, 40 μg/mL, listed as curzerenone): 53.0 ± 2.2%; Percentage of apoptotic cells (%) (HCT-116 cells; HCT-116, 25 μg/mL, listed as curzerenone): 50.0 ± 0.5%
